Assay results as given in article PMC10472371, “Discovery of E2730, a novel selective uncompetitive GAT1 inhibitor, as a candidate for anti‐seizure medication” (Epilepsia Open, 2023).

Columns and labels:
hGAT1 = biological target: T1, hGAT1 (Homo sapiens, UniProt P30531); test: [3H]GABA uptake in hGAT1 stably expressing HEK293 cells; type: cell-based; conditions: 50 μM [3H]GABA
T1 construct: expressed in transfected cells; host or cells: HEK293
Procedure: (§1) HEK293 cells stably expressing human GAT1 (hGAT1), GAT2 (hGAT2), GAT3 (hGAT3), or betaine/GABA transporter 1 (hBGT‐1) were plated onto 96‐well microtiter plates at a density of 4.0 × 10^4 cells/well in Dulbecco's Modified Eagle's Medium (DMEM, containing 10% fetal bovine serum, 100 units/mL penicillin, 100 μg/mL streptomycin, 1% non‐essential amino acid solution, and 25 mM HEPES) and incubated overnight at 37°C in a 5% CO2 atmosphere. After washing the cells with Hanks’ balanced salt solution (HBSS, containing 140 mg/L CaCl2, 100 mg/L MgCl2, 20 mM HEPES, and 10 mM NaOH), E2730 (0.0128–1000 μM) was added to the plate. Following the addition of 50 μM [^3H]GABA, cells were incubated for 5 minutes at 37°C in a 5% CO2 atmosphere and then washed with cold HBSS. Washed cells were incubated in a scintillator for 1 hour at room temperature, followed by radioactivity measurements using a liquid scintillation counter.

hGAT2 = biological target: T2, hGAT2 (Homo sapiens, UniProt Q9NSD5); test: [3H]GABA uptake in hGAT2 stably expressing HEK293 cells; type: cell-based; conditions: 50 μM [3H]GABA
T2 construct: expressed in transfected cells; host or cells: HEK293
T2 sequence (Q9NSD5 1-602): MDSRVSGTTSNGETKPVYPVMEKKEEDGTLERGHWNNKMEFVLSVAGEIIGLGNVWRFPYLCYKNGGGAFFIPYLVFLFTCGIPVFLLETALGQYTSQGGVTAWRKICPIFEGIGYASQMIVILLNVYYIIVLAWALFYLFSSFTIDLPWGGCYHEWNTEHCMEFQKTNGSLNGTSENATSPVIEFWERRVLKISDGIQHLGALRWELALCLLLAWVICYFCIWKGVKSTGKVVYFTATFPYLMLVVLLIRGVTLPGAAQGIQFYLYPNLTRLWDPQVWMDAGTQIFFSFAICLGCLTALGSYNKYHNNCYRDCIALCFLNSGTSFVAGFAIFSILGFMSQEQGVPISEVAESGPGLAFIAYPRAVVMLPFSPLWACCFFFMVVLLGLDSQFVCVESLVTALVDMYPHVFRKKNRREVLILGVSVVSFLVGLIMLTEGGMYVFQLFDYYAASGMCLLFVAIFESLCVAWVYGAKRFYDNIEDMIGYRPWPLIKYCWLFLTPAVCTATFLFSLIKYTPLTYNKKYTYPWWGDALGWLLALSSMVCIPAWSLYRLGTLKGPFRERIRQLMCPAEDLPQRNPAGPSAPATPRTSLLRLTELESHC
Procedure: as §1

[1] = biological target: T3, rat brain synaptosomal membranes (Rattus norvegicus, UniProt P23978); test: Saturation binding of [3H]E2730 in rat brain synaptosomal membranes; conditions: [3H]E2730, Scatchard plot
T3 construct: Synaptosomal membranes were prepared using the whole brain without cerebellum, brainstem, or olfactory bulb; from tissue; host or cells: rat whole brain without cerebellum, brainstem or olfactory bulb; synaptosomal membranes
Procedure: Synaptosomal membranes were prepared using the whole brain without cerebellum, brainstem, or olfactory bulb from Sprague Dawley rats (male, 7 weeks old) or human cerebral cortex based on Fuks et al.[10] and Hanada et al.[11] Synaptosomal membranes (0.4 mg protein/tube) were incubated with 9.8–5000 nM [^3H]E2730 for 120 minutes at 4°C. Non‐specific binding was defined as the residual binding observed in the presence of 1 mM unlabeled E2730. […] The filters were washed three times with ice‐cold 50 mM Tris–HCl buffer (pH 7.4) and incubated overnight in a scintillator (PerkinElmer), then the radioactivity was measured by a liquid scintillation counter (PerkinElmer).

[2] = biological target: T3, rat brain synaptosomal membranes; test: Competitive displacement of [3H]E2730 binding with ASMs; conditions: 20 nM [3H]E2730; unlabeled E2730 0.1-10 μM; ASMs at 10-3000 μM
Procedure: Unlabeled E2730 (0.1–10 μM) was also assessed to confirm a representative displacement. Non‐specific binding was defined as the residual binding observed in the presence of 1 mM unlabeled E2730. Radioactivity of the synaptosome‐bound radioligand was measured in the same way as described above.

[3] = test system: brain synaptosomal membranes of GAT1-deficient mice; test: [3H]E2730 binding in GAT1-deficient mouse brain; conditions: 200 nM [3H]E2730
Procedure: Synaptosomal membrane extract was prepared from homozygous γ‐aminobutyric acid (GABA) transporter 1 (GAT1) KO (Homo), heterozygous GAT1 KO (Hetero), and the littermate wild‐type (WT) mice (male, 10 weeks old) using the same approach as described above. Synaptosomal membrane extract (0.4 mg protein/tube) was incubated with 200 nM [^3H]E2730 for 120 minutes at 4°C. Non‐specific binding was defined as the residual binding observed in the presence of 1 mM unlabeled E2730. The radioactivity of the synaptosome‐bound radioligand was measured in the same way as described above.

hGAT3 = biological target: T4, hGAT3 (Homo sapiens, UniProt P48066); test: [3H]GABA uptake in hGAT3 stably expressing HEK293 cells; type: cell-based; conditions: 50 μM [3H]GABA
T4 construct: expressed in transfected cells; host or cells: HEK293
T4 sequence (P48066 1-632): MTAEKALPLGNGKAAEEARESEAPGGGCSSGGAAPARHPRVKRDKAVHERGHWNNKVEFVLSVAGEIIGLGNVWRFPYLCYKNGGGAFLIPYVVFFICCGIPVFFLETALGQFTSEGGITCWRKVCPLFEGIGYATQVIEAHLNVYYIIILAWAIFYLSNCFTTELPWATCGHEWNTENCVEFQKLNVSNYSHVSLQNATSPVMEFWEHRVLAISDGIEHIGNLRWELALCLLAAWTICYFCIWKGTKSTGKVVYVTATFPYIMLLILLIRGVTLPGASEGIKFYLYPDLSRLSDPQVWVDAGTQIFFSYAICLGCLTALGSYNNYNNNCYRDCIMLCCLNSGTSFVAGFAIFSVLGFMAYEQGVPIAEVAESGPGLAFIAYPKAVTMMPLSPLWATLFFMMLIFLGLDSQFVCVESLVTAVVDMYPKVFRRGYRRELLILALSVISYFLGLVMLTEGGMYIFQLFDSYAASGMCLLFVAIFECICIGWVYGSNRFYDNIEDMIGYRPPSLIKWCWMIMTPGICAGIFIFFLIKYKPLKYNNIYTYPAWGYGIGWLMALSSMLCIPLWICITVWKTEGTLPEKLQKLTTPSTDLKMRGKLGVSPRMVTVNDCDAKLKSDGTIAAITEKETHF
Procedure: as §1

T1 sequence (P30531 whole entry): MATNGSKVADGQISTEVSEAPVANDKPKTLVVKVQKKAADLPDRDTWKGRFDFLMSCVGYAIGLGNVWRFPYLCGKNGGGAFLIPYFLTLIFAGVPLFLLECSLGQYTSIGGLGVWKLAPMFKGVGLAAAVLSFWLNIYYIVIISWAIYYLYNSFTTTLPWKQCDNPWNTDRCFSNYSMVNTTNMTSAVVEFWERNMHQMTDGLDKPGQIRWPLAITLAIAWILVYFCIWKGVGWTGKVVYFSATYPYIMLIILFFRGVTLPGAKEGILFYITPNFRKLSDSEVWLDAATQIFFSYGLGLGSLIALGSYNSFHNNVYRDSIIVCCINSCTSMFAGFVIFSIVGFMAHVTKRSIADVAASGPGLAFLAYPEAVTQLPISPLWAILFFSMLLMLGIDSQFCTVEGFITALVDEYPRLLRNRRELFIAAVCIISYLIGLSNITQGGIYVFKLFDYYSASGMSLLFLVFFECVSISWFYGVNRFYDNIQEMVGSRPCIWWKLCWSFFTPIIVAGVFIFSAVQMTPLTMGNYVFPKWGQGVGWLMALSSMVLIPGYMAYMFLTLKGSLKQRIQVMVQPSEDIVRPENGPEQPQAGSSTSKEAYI

With `NS(=O)(=O)N[C@H]1c2c(F)cc(F)cc2CC1(F)F` [E2730] the IC50 (hGAT1) was 1.1 µM, the IC50 (hGAT2) was > 1000 µM and the Bmax [1] was 3419 fmol/mg protein. For the same compound, the Kd [1] was 0.553 µM, the “displacement of [3H]E2730 binding” value [2] was “displaced the radiolabeled [^3H]E2730 in a concentration‐dependent manner” and the “proportion of bound [3H]E2730 relative to WT mice” value ([3]; heterozygous GAT1 KO (Hetero) mice) was 54.0%. For the same compound, the “proportion of bound [3H]E2730 relative to WT mice” value ([3]; homozygous GAT1 KO (Homo) mice) was 8.0% and the IC50 (hGAT3) was > 1000 µM.
